From patent publication US20080096967A1, “Formulations for Injection of Catecholic Butanes, Including Ndga Compounds, Into Animals” (priority 2005, published 2008)

Tests used:
[1] = parameters: species or system Beagle dogs; details: in vivo
Description: Following completion of each intravenous infusion, 1 mL of sterile saline was administered as a slow bolus injection to flush the test material from the infusion line into the animal, followed by an injection of heparin-saline solution to fill the infusion line to maintain patency. The animals were observed. Cageside observation included observation for mortality, morbundity, general health, and signs of toxicity. Clinical observations included evaluation of skin and fur characteristics, surgical site, eye and mucous membranes, respiratory, circulatory, autonomic and central nervous systems, and somatomotor and behavior patterns. Blood was collected and placed into 2.5 mL serum separator tubes for serum M4N concentration analysis. The tubes were inverted several times, stored on wet ice, and centrifuged at about 3000 rpm for about 10 min. at 4° C. Serum was transferred to microcentrifuge tubes and stored at −75±10° C.
Samples were shipped on dry ice to the Analytical Chemistry Laboratory of GeneLogic (Gaithersburg, Md., U.S.A.) for test article analysis. The method involved treating aliquots of dog serum, at least 0.5 mL, with acetonitrile, filtering, and injecting the filtrate onto an HPLC column with tandem mass-spectrometry detection (LC-MS/MS). The analyte was quantified using an external standard curve with triazolam as an internal standard.

[2] = 40 mg/mL M4N/PEG 300 stability: RP-HPLC analysis; assay type: physicochemical
Description: The stability of 40 mg/mL M4N dissolved in 100% PEG 300 was evaluated up to 24 hours incubation at 30° C., 45° C. and 60° C. A stock 40 mg/mL M4N in PEG 300 was prepared at 60° C., following the procedure set forth in Example 17. Subsequently, aliquots were removed and incubated at the appropriate temperature. Samples were rotated at 450 rpm during the entire course of incubation. Visual observations and RP-HPLC data were collected throughout. […] The formation of crystals coincided with a loss of soluble M4N (Table 30). The 40 mg/mL M4N/PEG 300 samples incubated at 45° C. and 60° C. were stable after 24 hours incubation as assessed by visual observations and RP-HPLC analysis (Tables 29 and 30).

healthy male subjects = assay: Human Phase 0 microdose study: tolerability; assay type: in vivo; details: oral and intravenous administrations, 100 μg
Description: This study was designed to assess the absorption of M4N when administered to humans as a sub-therapeutic dose either as a single oral dose under fed and fasted conditions or a single intravenous dose (Regimens A-C, respectively, in Table 24). The study was a three-way crossover study design in a target population of healthy male subjects and consisted of three study periods of approximately 35 hours duration, each separated by a minimum period of at least 7 days between dosing. During the course of each study period, pharmacokinetic blood samples were taken at specified time points after dosing and urine was collected over pre-defined time intervals. The subjects were able to leave the clinical unit after the completion of study specific procedures at 24 hours post-dose.

[3] = Solubility of M4N in water-soluble organic solvents (Table 20, visual inspection); assay type: physicochemical
Description: A 100 mL solution of M4N at a concentration of about 25 mg/mL in PEG 300 was made as follows. About 100 mL of PEG 300 were added to a glass beaker containing a stir bar. The beaker was placed on a magnetic plate and the stir bar was set to stir at medium speed. About 2.5 g of M4N were slowly added to the PEG 300 in the center of the beaker with the aid of a spatula to prevent M4N from sticking to the beaker wall. The M4N/PEG 300 mixture was stirred for 24 hr or until all M4N had dissolved or was uniformly suspended without any clumps being present. The M4N/PEG 300 mixture was optionally heated at about 60° C. for about 30 min. (or longer if a larger volume of solution was desired, for example, 1 hr at 60° C. for 500 mL of the M4N/PEG 300 mixture), or longer as needed to ensure complete dissolution of M4N. […] If crystals formed, the M4N/PEG 300 solution could be heated again at 60° C. for about 1 hr, with stirring, on a hot magnetic plate until all M4N was dissolved back in solution. The final M4N/PEG 300 solution was stored at room temperature and was kept protected from light. This process may be scaled up or down to obtain the requisite volume or concentration of M4N. Formulations containing M4N in other PEGs may be similarly made, such as, for example, by substituting PEG 300 in the process described above with PEG 400 or PEG 400 monolaurate.
This process may be scaled up or down to obtain the requisite volume or concentration of M4N and the heating temperature may be increased or decreased to achieve dissolution of M4N. Formulations containing M4N in other water-insoluble lipids combined with non-ionic surfactants, ionic surfactants or water-soluble organic solvents may be similarly made, such as, for example, by substituting sesame oil or Tween® 20 in the process described above with corn oil, olive oil, soybean oil, peppermint oil, Tween® 80, d-alpha-tocopheryl polyethylene glycol 1000 succinate (TPGS), lecithin, PEG 300, PEG 400, PEG 400 monolaurate, glycerol, polyvinylpyrrolidone (“PVP”), propylene glycol (“PG”), or other solubilizing agents, and combinations thereof.

For COc1ccc(C[C@@H](C)[C@@H](C)Cc2ccc(OC)c(OC)c2)cc1OC [Formulation M4N, meso-1,4-bis(3,4-dimethoxyphenyl)-2,3-dimethylbutane], the “M4N in serum 16 hr following the infusion period” value ([1]; dog) was “still detectable”, the “M4N serum levels, female dog vs male dog” value [1] was “higher in the female dog” and the impurities peaks ([2]; 40 mg/mL M4N/PEG 300, 30° C., 45° C. and 60° C.) was “No changes”. The “loss in soluble M4N” value ([2]; 40 mg/mL M4N/PEG 300, 24 hours at 30° C.) was greater than 5%, the adverse events (healthy male subjects) was “no serious or severe adverse events” and the “tolerability of study formulations” value (healthy male subjects) was “well tolerated”. The “Dissolution After Heating” value ([3]; 40% Propylene Glycol, 10% Ethanol, M4N 10 mg/mL, temperature not given) was “N”, the “Stability Time at Room Temperature” value ([3]; Ethanol 100%, M4N 1 mg/mL) was greater than 3 days and the “Dissolution After Heating” value ([3]; Ethanol 100%, M4N 10 mg/mL, heating at 37° C.) was “N at 37 °C”. For the same compound, the “Dissolution After Heating” value ([3]; Glycerol 100%, M4N 1 mg/mL, heating at 70° C.) was “Y at 70 °C”, the “Dissolution After Heating” value ([3]; Glycerol 100%, M4N 10 mg/mL, heating at 70° C.) was “Y at 70 °C” and the “Dissolution After Heating” value ([3]; Glycerol 100%, M4N 20 mg/mL, heating at 70° C.) was “Y at 70 °C”. The “Dissolution After Heating” value ([3]; PEG 300 33%, M4N 10 mg/mL, heating at 50° C.) was “N at 50 °C”, the “Stability Time at Room Temperature” value ([3]; PEG 300 100%, M4N 25 mg/mL) was less than 7 days and the “Dissolution After Heating” value ([3]; PEG 300 100%, M4N 25 mg/mL, heating at 50° C.) was “Y at 50 °C”. For the same compound, the “Stability Time at Room Temperature” value ([3]; PEG 300 100%, M4N 30 mg/mL) was less than 3 days, the “Dissolution After Heating” value ([3]; PEG 300 100%, M4N 30 mg/mL, heating at 50° C.) was “Y at 50 °C” and the “Stability Time at Room Temperature” value ([3]; PEG 300 100%, M4N 40 mg/mL) was less than 1 days. The “Dissolution After Heating” value ([3]; PEG 300 100%, M4N 40 mg/mL, heating at 50° C.) was “Y at 50 °C”, the “Stability Time at Room Temperature” value ([3]; PEG 300 100%, M4N 50 mg/mL) was less than 1 days and the “Dissolution After Heating” value ([3]; PEG 300 100%, M4N 50 mg/mL, heating at 60° C.) was “Y at 60 °C”. The “Dissolution After Heating” value ([3]; PEG 300 100%, M4N 100 mg/mL, heating at 60° C.) was “Y at 60 °C”, the “Dissolution After Heating” value ([3]; PEG 400 5%, M4N 10 mg/mL, heating at 50° C.) was “N at 50 °C” and the “Stability Time at Room Temperature” value ([3]; PEG 400 100%, M4N 25 mg/mL) was less than 7 days. The “Dissolution After Heating” value ([3]; PEG 400 100%, M4N 25 mg/mL, heating at 50° C.) was “Y at 50 °C”, the “Stability Time at Room Temperature” value ([3]; PEG 400 100%, M4N 30 mg/mL) was less than 3 days and the “Dissolution After Heating” value ([3]; PEG 400 100%, M4N 30 mg/mL, heating at 50° C.) was “Y at 50 °C”. The “Stability Time at Room Temperature” value ([3]; PEG 400 100%, M4N 40 mg/mL) was less than 1 days, the “Dissolution After Heating” value ([3]; PEG 400 100%, M4N 40 mg/mL, heating at 50° C.) was “Y at 50 °C” and the “Stability Time at Room Temperature” value ([3]; PEG 400 100%, M4N 50 mg/mL) was less than 1 days. For the same compound, the “Dissolution After Heating” value ([3]; PEG 400 100%, M4N 50 mg/mL, heating at 60° C.) was “Y at 60 °C”, the “Dissolution After Heating” value ([3]; PEG 400 100%, M4N 100 mg/mL, heating at 60° C.) was “Y at 60 °C” and the “Dissolution After Heating” value ([3]; PEG 400 monolaurate 100%, M4N 20 mg/mL, heating at 50° C.) was “Y at 50 °C”. The “Dissolution After Heating” value ([3]; PEG 400 monolaurate 100%, M4N 50 mg/mL, heating at 50° C.) was “Y at 50 °C”, the “Dissolution After Heating” value ([3]; PVP 15%, M4N 1 mg/mL, heating at 90° C.) was “N at 90 °C” and the “Dissolution After Heating” value ([3]; PVP 15%, M4N 10 mg/mL, heating at 90° C.) was “N at 90 °C”. The “Stability Time at Room Temperature” value ([3]; Propylene Glycol 100%, M4N 1 mg/mL) was less than 1 days, the “Dissolution After Heating” value ([3]; Propylene Glycol 100%, M4N 1 mg/mL, heating at 55° C.) was “Y at 55 °C” and the “Stability Time at Room Temperature” value ([3]; Propylene Glycol 100%, M4N 10 mg/mL) was less than 1 days. The “Dissolution After Heating” value ([3]; Propylene Glycol 100%, M4N 10 mg/mL, heating at 55° C.) was “Y at 55 °C”, the “Stability Time at Room Temperature” value ([3]; Propylene Glycol 100%, M4N 20 mg/mL) was less than 1 days and the “Dissolution After Heating” value ([3]; Propylene Glycol 100%, M4N 20 mg/mL, heating at 55° C.) was “Y at 55 °C”.
